Holding throughout (format): cell-based
Assay [1] has as its target T1, hNaV1.3 (Homo sapiens, UniProt Q9NY46).
T1 construct: host or cells: HEK293
Nature of the assay: Automated whole-cell patch-clamp (QPatch 16X), hNaV1.3. Conditions: for IC50: HEK293 cells expressing hNaV1.3 + β1 subunit, QPatch 16X, holding −80 mV, step to 0 mV, peptide incubated 2 min, 0.1% BSA, mean, SEM and n (3-12). Put shortly: (§1)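 HEK293 cells stably expressing the channel (human subtypes with β1 subunit), held at −80 mV; 2 min peptide pre-incubation, then 20 ms steps to 0 mV after a 200 ms −120 mV conditioning pulse. Extracellular pH 7.3 with 20 mM TEA-Cl, CsF-based pipette solution, 0.1% BSA; IC50 from four-parameter Hill fit.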

For assay [2], the target named is T2, hNaV1.7 (Homo sapiens, UniProt Q15858).
T2 construct: host or cells: HEK293
T2 sequence (Q15858 whole entry): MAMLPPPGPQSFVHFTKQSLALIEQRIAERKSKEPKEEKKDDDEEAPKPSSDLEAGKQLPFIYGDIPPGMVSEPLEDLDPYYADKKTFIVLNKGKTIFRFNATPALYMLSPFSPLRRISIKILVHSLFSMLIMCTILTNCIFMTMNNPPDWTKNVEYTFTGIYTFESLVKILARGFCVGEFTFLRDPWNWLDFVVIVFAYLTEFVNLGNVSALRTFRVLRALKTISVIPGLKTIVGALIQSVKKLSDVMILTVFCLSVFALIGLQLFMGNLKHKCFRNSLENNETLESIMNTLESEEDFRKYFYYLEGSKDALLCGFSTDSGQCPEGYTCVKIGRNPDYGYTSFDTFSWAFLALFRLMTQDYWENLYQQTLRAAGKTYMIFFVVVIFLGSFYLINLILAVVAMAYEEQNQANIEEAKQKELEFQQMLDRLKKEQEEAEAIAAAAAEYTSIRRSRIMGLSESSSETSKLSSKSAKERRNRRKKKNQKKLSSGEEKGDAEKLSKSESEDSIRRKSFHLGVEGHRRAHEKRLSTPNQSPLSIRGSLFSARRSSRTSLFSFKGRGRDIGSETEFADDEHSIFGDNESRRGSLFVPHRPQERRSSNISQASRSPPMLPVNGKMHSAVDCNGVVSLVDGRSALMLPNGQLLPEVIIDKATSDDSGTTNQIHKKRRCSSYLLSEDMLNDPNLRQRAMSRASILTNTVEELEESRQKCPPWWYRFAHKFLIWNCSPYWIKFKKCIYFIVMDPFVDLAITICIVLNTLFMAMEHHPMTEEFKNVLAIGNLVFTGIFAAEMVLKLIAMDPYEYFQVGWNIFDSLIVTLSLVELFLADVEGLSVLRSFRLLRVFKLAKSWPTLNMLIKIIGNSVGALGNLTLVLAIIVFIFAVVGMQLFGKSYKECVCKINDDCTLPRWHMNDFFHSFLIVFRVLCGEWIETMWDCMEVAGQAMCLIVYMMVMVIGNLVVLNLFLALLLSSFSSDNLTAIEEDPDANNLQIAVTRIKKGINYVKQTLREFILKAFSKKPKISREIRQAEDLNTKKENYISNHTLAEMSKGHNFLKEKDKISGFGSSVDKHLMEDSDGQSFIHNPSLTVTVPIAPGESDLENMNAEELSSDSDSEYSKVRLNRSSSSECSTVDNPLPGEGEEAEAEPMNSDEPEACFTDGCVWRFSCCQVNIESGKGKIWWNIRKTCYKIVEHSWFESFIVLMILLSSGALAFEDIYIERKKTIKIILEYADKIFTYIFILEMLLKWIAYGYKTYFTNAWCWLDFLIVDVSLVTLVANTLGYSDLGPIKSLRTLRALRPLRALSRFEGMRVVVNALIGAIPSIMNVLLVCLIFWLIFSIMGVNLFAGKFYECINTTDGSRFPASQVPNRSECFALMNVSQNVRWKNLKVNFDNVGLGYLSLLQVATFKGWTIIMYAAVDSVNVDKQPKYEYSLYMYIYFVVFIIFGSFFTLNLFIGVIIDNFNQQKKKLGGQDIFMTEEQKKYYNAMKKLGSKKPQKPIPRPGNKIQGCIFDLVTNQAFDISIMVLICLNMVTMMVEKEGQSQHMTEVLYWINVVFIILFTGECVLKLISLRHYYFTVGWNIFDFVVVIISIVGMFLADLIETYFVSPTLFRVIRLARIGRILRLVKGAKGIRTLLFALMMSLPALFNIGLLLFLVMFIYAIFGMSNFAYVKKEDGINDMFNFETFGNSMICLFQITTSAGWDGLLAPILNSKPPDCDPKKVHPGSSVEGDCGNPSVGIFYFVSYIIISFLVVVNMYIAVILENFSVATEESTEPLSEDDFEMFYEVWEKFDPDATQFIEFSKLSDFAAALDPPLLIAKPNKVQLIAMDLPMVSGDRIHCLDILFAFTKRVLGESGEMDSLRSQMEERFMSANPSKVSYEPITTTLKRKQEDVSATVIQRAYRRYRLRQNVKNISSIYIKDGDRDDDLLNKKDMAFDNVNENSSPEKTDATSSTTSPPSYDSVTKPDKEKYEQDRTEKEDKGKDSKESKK
T2 sequence (Q07699 19-218, further chain): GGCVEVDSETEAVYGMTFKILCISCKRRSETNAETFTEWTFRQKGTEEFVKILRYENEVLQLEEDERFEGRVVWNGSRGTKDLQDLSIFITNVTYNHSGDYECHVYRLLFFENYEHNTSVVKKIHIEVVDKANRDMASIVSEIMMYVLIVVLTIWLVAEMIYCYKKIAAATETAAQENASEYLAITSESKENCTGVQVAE
Nature of the assay: Automated whole-cell patch-clamp (QPatch 16X), hNaV1.7. Conditions: for IC50: HEK293 cells expressing hNaV1.7 + β1 subunit, QPatch 16X, holding −80 mV, step to 0 mV, peptide incubated 2 min, 0.1% BSA, mean, SEM and n (3-9). Summed up:
as §1
(In patch-clamp work, channel activity is measured electrically.)

Assay [3] addresses T3, hNaV1.2 (Homo sapiens, UniProt Q99250).
T3 construct: host or cells: HEK293
Kind of assay: Automated whole-cell patch-clamp (QPatch 16X), hNaV1.2. Conditions: for IC50: HEK293 cells expressing hNaV1.2 + β1 subunit, QPatch 16X, holding −80 mV, step to 0 mV, peptide incubated 2 min, 0.1% BSA, mean, SEM and n (2-7). Summed up: as §1

Bridge positions count the residues as written; N and C are the ends. Peptide text beside a SMILES is read from it.

T3 sequence (Q07699 19-218): as the sequence (Q07699 19-218, further chain) above
T3 sequence (Q99250 whole entry): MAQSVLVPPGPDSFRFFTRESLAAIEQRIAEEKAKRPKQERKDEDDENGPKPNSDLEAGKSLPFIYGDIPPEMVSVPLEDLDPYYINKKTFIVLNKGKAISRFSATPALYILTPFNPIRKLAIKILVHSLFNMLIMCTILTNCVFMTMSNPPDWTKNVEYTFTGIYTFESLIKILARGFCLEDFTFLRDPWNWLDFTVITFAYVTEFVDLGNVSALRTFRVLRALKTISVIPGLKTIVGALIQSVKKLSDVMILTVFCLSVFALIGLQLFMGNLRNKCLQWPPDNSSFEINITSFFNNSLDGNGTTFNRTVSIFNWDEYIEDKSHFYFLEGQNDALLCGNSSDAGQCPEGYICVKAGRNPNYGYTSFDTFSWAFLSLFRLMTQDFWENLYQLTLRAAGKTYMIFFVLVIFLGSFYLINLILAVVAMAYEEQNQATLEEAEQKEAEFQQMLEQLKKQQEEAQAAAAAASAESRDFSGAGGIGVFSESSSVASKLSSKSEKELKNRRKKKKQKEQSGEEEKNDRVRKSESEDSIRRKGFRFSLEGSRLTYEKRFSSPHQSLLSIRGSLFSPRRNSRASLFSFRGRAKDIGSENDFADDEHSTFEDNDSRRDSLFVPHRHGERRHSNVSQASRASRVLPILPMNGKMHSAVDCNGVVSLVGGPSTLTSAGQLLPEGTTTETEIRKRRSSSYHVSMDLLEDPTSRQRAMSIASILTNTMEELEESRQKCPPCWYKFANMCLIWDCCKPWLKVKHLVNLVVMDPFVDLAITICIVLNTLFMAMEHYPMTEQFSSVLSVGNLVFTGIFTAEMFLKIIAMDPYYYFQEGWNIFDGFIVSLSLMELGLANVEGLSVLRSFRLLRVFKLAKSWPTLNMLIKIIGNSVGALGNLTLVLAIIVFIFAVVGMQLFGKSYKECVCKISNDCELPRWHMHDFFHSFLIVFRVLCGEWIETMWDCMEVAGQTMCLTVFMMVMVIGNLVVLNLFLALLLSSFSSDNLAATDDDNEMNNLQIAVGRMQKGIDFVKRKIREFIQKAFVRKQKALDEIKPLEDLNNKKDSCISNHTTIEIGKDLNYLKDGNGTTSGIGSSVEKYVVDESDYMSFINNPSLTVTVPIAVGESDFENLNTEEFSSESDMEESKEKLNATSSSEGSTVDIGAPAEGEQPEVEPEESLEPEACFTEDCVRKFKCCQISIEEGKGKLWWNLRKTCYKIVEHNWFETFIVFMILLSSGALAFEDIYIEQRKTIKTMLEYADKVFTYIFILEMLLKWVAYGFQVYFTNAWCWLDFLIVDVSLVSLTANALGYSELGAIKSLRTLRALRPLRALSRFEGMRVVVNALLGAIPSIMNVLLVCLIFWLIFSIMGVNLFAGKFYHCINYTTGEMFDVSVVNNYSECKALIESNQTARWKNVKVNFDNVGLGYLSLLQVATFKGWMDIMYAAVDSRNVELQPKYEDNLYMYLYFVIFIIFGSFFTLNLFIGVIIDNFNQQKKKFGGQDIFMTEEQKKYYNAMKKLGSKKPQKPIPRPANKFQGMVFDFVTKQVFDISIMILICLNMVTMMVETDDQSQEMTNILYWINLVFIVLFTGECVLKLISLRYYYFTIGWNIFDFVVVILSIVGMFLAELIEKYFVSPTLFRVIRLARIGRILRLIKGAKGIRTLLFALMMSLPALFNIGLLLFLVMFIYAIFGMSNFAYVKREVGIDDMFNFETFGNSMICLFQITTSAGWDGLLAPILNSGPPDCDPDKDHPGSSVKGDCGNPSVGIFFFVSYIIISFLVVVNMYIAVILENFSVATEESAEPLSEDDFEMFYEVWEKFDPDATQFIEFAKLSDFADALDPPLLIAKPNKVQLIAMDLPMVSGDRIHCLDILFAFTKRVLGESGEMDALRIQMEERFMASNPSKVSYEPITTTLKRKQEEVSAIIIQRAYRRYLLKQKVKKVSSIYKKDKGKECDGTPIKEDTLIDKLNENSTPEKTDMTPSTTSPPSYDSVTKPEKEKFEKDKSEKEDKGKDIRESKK

What is called IC50 is the concentration needed to halve the response being measured. For `CC(C)C[C@H](NC(=O)[C@H](CC(=O)O)NC(=O)[C@H](Cc1ccc(O)cc1)NC(=O)[C@H](CCCNC(=N)N)NC(=O)[C@@H]1CSSC[C@@H]2NC(=O)[C@H](CCCCN)NC(=O)[C@H](CC(N)=O)NC(=O)[C@H](CC(N)=O)NC(=O)[C@H](CC(N)=O)NC(=O)[C@@H]3CCCN3C(=O)[C@H](CC(=O)O)NC(=O)[C@@H]3CSSC[C@H](NC(=O)[C@H](C(C)C)NC(=O)[C@H](C)NC(=O)CNC(=O)[C@H](CCC(=O)O)NC(=O)[C@H](CSSC[C@H](NC(=O)[C@H](CC(=O)O)NC(=O)CN)C(=O)N[C@@H](CC(C)C)C(=O)NCC(=O)N[C@@H](Cc4c[nH]c5ccccc45)C(=O)N[C@@H](Cc4ccccc4)C(=O)N[C@@H](CO)C(=O)NCC(=O)N3)NC2=O)C(=O)N[C@@H](Cc2c[nH]cn2)C(=O)N[C@@H](Cc2c[nH]c3ccccc23)C(=O)N[C@@H](CCCCN)C(=O)N[C@@H](Cc2ccc(O)cc2)C(=O)N2CCC[C@H]2C(=O)N[C@@H](Cc2c[nH]c3ccccc23)C(=O)N1)C(=O)O` [Y20A], the IC50 in assay [1] is above 3000 nM; in assay [2], 1270 nM; in assay [3], 1840 nM. In assay [1] (alanine mutant vs rSsp1a), the “Activity at hNaV1.3 (in words)” value was “inactive”.
Regarding `CC(C)C[C@H](NC(=O)[C@H](CC(=O)O)NC(=O)[C@H](Cc1ccc(O)cc1)NC(=O)[C@H](CCCNC(=N)N)NC(=O)[C@@H]1CSSC[C@@H]2NC(=O)[C@H](CCCCN)NC(=O)[C@H](CC(N)=O)NC(=O)[C@H](CC(N)=O)NC(=O)[C@H](CC(N)=O)NC(=O)[C@@H]3CCCN3C(=O)[C@H](CC(=O)O)NC(=O)[C@@H]3CSSC[C@H](NC(=O)[C@H](C(C)C)NC(=O)[C@H](CC(C)C)NC(=O)CNC(=O)[C@H](CCC(=O)O)NC(=O)[C@H](CSSC[C@H](NC(=O)[C@H](CC(=O)O)NC(=O)CN)C(=O)N[C@@H](CC(C)C)C(=O)NCC(=O)N[C@@H](Cc4c[nH]c5ccccc45)C(=O)N[C@@H](Cc4ccccc4)C(=O)N[C@@H](CO)C(=O)NCC(=O)N3)NC2=O)C(=O)N[C@@H](Cc2c[nH]cn2)C(=O)N[C@@H](Cc2c[nH]c3ccccc23)C(=O)N[C@@H](CCCCN)C(=O)N[C@@H](Cc2ccc(O)cc2)C(=O)N2CCC[C@H]2C(=O)N[C@@H](Cc2c[nH]c3ccccc23)C(=O)N1)C(=O)O` [Y20L], the concentration for half-maximal inhibition (IC50) in assay [1] came to 476 nM; in assay [2], 288 nM; in assay [3], 340 nM.
For `CC(C)C[C@H](NC(=O)[C@H](CC(=O)O)NC(=O)[C@H](Cc1ccc(O)cc1)NC(=O)[C@H](CCCNC(=N)N)NC(=O)[C@@H]1CSSC[C@@H]2NC(=O)[C@H](CCCCN)NC(=O)[C@H](CC(N)=O)NC(=O)[C@H](CC(N)=O)NC(=O)[C@H](CC(N)=O)NC(=O)[C@@H]3CCCN3C(=O)[C@H](CC(=O)O)NC(=O)[C@@H]3CSSC[C@H](NC(=O)[C@H](C(C)C)NC(=O)[C@H](Cc4ccc(O)cc4)NC(=O)CNC(=O)[C@H](CCC(=O)O)NC(=O)[C@H](CSSC[C@H](NC(=O)[C@H](CC(=O)O)NC(=O)CN)C(=O)N[C@@H](CC(C)C)C(=O)NCC(=O)N[C@@H](Cc4c[nH]c5ccccc45)C(=O)N[C@@H](Cc4ccccc4)C(=O)N[C@@H](CO)C(=O)NCC(=O)N3)NC2=O)C(=O)N[C@@H](Cc2c[nH]cn2)C(=O)N[C@@H](Cc2c[nH]c3ccccc23)C(=O)N[C@@H](CCCCN)C(=O)N[C@@H](C)C(=O)N2CCC[C@H]2C(=O)N[C@@H](Cc2c[nH]c3ccccc23)C(=O)N1)C(=O)O` [Y26A] (H-GDCLGWFSGCDPNNNKCCEGYVCHWKAPWCRYDL-OH; disulfide 3-18, 10-23, 17-30 (inferred); N-terminus and C-terminus assumed), the IC50 in assay [1], in assay [2] and in assay [3] was above 1000 nM throughout. The “Loss (reduction) in potency vs rSsp1a at hNaV1.7” value in assay [2] (relative to wild type rSsp1a) was at least 10 fold. Besides, the “Loss (reduction) in potency vs rSsp1a at hNaV1.2” value in assay [3] (relative to wild type rSsp1a) was at least 10 fold.
In the case of `CC(C)C[C@H](NC(=O)[C@H](CC(=O)O)NC(=O)[C@H](Cc1ccc(O)cc1)NC(=O)[C@H](CCCNC(=N)N)NC(=O)[C@@H]1CSSC[C@@H]2NC(=O)[C@H](CCCCN)NC(=O)[C@H](CC(N)=O)NC(=O)[C@H](CC(N)=O)NC(=O)[C@H](CC(N)=O)NC(=O)[C@@H]3CCCN3C(=O)[C@H](CC(=O)O)NC(=O)[C@@H]3CSSC[C@H](NC(=O)[C@H](C(C)C)NC(=O)[C@H](Cc4ccc(O)cc4)NC(=O)CNC(=O)[C@H](CCC(=O)O)NC(=O)[C@H](CSSC[C@H](NC(=O)[C@H](CC(=O)O)NC(=O)CN)C(=O)N[C@@H](CC(C)C)C(=O)NCC(=O)N[C@@H](Cc4c[nH]c5ccccc45)C(=O)N[C@@H](Cc4ccccc4)C(=O)N[C@@H](CO)C(=O)NCC(=O)N3)NC2=O)C(=O)N[C@@H](Cc2c[nH]cn2)C(=O)N[C@@H](Cc2c[nH]c3ccccc23)C(=O)N[C@@H](CCCCN)C(=O)N[C@@H](Cc2c[nH]cn2)C(=O)N2CCC[C@H]2C(=O)N[C@@H](Cc2c[nH]c3ccccc23)C(=O)N1)C(=O)O` [Y26H], the IC50 in assay [1] was 484 nM; in assay [2], 244 nM; in assay [3], 369 nM.
In the same order, the values of `CC(C)C[C@H](NC(=O)[C@H](CC(=O)O)NC(=O)[C@H](C)NC(=O)[C@H](CCCNC(=N)N)NC(=O)[C@@H]1CSSC[C@@H]2NC(=O)[C@H](CCCCN)NC(=O)[C@H](CC(N)=O)NC(=O)[C@H](CC(N)=O)NC(=O)[C@H](CC(N)=O)NC(=O)[C@@H]3CCCN3C(=O)[C@H](CC(=O)O)NC(=O)[C@@H]3CSSC[C@H](NC(=O)[C@H](C(C)C)NC(=O)[C@H](Cc4ccc(O)cc4)NC(=O)CNC(=O)[C@H](CCC(=O)O)NC(=O)[C@H](CSSC[C@H](NC(=O)[C@H](CC(=O)O)NC(=O)CN)C(=O)N[C@@H](CC(C)C)C(=O)NCC(=O)N[C@@H](Cc4c[nH]c5ccccc45)C(=O)N[C@@H](Cc4ccccc4)C(=O)N[C@@H](CO)C(=O)NCC(=O)N3)NC2=O)C(=O)N[C@@H](Cc2c[nH]cn2)C(=O)N[C@@H](Cc2c[nH]c3ccccc23)C(=O)N[C@@H](CCCCN)C(=O)N[C@@H](Cc2ccc(O)cc2)C(=O)N2CCC[C@H]2C(=O)N[C@@H](Cc2c[nH]c3ccccc23)C(=O)N1)C(=O)O` [Y31A] are above 1000 nM, 254 nM and 633 nM.
In the same order, the values of `CC(C)C[C@H](NC(=O)[C@H](CC(=O)O)NC(=O)[C@@H](NC(=O)[C@H](CCCNC(=N)N)NC(=O)[C@@H]1CSSC[C@@H]2NC(=O)[C@H](CCCCN)NC(=O)[C@H](CC(N)=O)NC(=O)[C@H](CC(N)=O)NC(=O)[C@H](CC(N)=O)NC(=O)[C@@H]3CCCN3C(=O)[C@H](CC(=O)O)NC(=O)[C@@H]3CSSC[C@H](NC(=O)[C@H](C(C)C)NC(=O)[C@H](Cc4ccc(O)cc4)NC(=O)CNC(=O)[C@H](CCC(=O)O)NC(=O)[C@H](CSSC[C@H](NC(=O)[C@H](CC(=O)O)NC(=O)CN)C(=O)N[C@@H](CC(C)C)C(=O)NCC(=O)N[C@@H](Cc4c[nH]c5ccccc45)C(=O)N[C@@H](Cc4ccccc4)C(=O)N[C@@H](CO)C(=O)NCC(=O)N3)NC2=O)C(=O)N[C@@H](Cc2c[nH]cn2)C(=O)N[C@@H](Cc2c[nH]c3ccccc23)C(=O)N[C@@H](CCCCN)C(=O)N[C@@H](Cc2ccc(O)cc2)C(=O)N2CCC[C@H]2C(=O)N[C@@H](Cc2c[nH]c3ccccc23)C(=O)N1)[C@@H](C)O)C(=O)O` [Y31T] are above 3000 nM, 545 nM and 874 nM.
In the same order, the values of `CC(C)C[C@H](NC(=O)[C@H](CC(=O)O)NC(=O)[C@H](Cc1c[nH]c2ccccc12)NC(=O)[C@H](CCCNC(=N)N)NC(=O)[C@@H]1CSSC[C@@H]2NC(=O)[C@H](CCCCN)NC(=O)[C@H](CC(N)=O)NC(=O)[C@H](CC(N)=O)NC(=O)[C@H](CC(N)=O)NC(=O)[C@@H]3CCCN3C(=O)[C@H](CC(=O)O)NC(=O)[C@@H]3CSSC[C@H](NC(=O)[C@H](C(C)C)NC(=O)[C@H](Cc4ccc(O)cc4)NC(=O)CNC(=O)[C@H](CCC(=O)O)NC(=O)[C@H](CSSC[C@H](NC(=O)[C@H](CC(=O)O)NC(=O)CN)C(=O)N[C@@H](CC(C)C)C(=O)NCC(=O)N[C@@H](Cc4c[nH]c5ccccc45)C(=O)N[C@@H](Cc4ccccc4)C(=O)N[C@@H](CO)C(=O)NCC(=O)N3)NC2=O)C(=O)N[C@@H](Cc2c[nH]cn2)C(=O)N[C@@H](Cc2c[nH]c3ccccc23)C(=O)N[C@@H](CCCCN)C(=O)N[C@@H](Cc2ccc(O)cc2)C(=O)N2CCC[C@H]2C(=O)N[C@@H](Cc2c[nH]c3ccccc23)C(=O)N1)C(=O)O` [Y31W] are 160 nM, 80 nM and 89 nM.

Values taken from paper PMC10682951, “Structure-function and rational design of a spider toxin Ssp1a at human voltage-gated sodium channel subtypes” (Frontiers in Pharmacology, 2023).
